The target in the experiment is Mitogen-activated protein kinase 1 (Homo sapiens, UniProt P28482). As to the kind of experiment: Inhibitory activity against human ERK2.
Mitogen-activated protein kinase 1, sequence (P28482 whole entry): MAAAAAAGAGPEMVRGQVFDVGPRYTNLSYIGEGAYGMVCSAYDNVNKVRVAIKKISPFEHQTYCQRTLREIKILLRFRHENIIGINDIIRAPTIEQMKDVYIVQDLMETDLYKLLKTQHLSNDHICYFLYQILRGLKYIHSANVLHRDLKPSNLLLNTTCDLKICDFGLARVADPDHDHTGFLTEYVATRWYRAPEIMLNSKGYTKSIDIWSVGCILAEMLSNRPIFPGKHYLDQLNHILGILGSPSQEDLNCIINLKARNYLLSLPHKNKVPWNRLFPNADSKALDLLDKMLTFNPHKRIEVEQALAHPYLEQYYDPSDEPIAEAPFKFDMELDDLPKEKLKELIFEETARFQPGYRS

With `C=CCn1nc(N)c2cc(-c3c(-c4ccccc4)nn4ccccc34)nnc21`, the half-maximal inhibitory concentration (IC50) – broadly, the concentration that gives 50% inhibition – was determined as 560 nM.

Regarding `Nc1nn(CCO)c2nnc(-c3c(-c4ccccc4)nn4ccccc34)cc12`, the IC50 was 5100 nM.

As to `Cn1nc(N)c2cc(-c3c(-c4ccccc4)nn4ccccc34)nnc21`, the IC50 is 1400 nM.

(Values after ChEMBL document CHEMBL1147784, “Crystal structure of human ERK2 complexed with a pyrazolo[3,4-c]pyridazine derivative” (Bioorg Med Chem Lett, 2006).)
